One data set is described as follows: in vitro. The settings on record: human, mt-2 cells. As to the method: Cell viability was determined by the metabolism of the tetrazolium dye, XTT, 3,3'-[1-[phenylamino)carbonyl]-3,4-tetrazolium]bis-(4-methoxy-6-nitrobenzene-sulfonic acid(Sigma)(Scudiero et al., Cancer Res. 48:4827-4833 (1988)). In this assay metabolically active cells transform the tetrazolium dye, XTT, to a soluble colored formazan product. Microtiter plates (96 wells) were seeded with 1×10^5 cells/well and graded concentrations of test compounds in RPMI 1640 plus 5% FCS. Cells (MT-2) were allowed to grow at 36° C. in the presence of compounds for 3 days. To each well was added 0.05 ml of 1 mg XTT/ml in phosphate buffered saline (PBS) containing 0.025 mM phenazine methosulfate. Plates were incubated an additional four hours at 36° C. and the A450 was determined. The absorption was proportional to the number of viable cells in the well. The concentration of compound which produced a 50% reduction in the number of viable cells was designated the TC50.
In order to determine how these combinations affect cell viability, a cytotoxicity assay was conducted on combinations of the two compounds over the range 0.3-100 μg/ml and the TC50 s calculated.

For data set [1] the following is noted: AZT treatment of HIV positive individuals; cited from earlier work.
Another data set has as its system HIV strains. Particulars: time of AZT treatment after which resistant strains observed; cited from earlier work.

Broadly, the CC50 is the concentration giving 50% cytotoxicity. On to `Cc1cn([C@H]2C[C@H](N=[N+]=[N-])[C@@H](CO)O2)c(=O)[nH]c1=O` [AZT, 3'-azido-3'-deoxythymidine], for which the CC50 at 72 h in “in vitro” was greater than 100 µg/mL. The Toxicity result in data set [1] was “frequently toxic, causing bone marrow suppression resulting in anemia, leukopenia and thrombocytopenia”. In addition, in the data set with HIV strains, the “AZT-resistant HIV strains observed” value is “six”.

The values above are taken from patent US5616578A (priority 1993, dated 1997).
